According to patent US20240148821A1, “PHARMACEUTICAL USE OF CYCLIC PEPTIDE COMPOUND” (CHUGAI SEIYAKU KABUSHIKI KAISHA, priority 2021, published 2024):
Numbered stars: 1 amine (or outer) side, 2 acyl side, 3 side chain; on linkers, the order of the positions; unused ones are H or OH. Bridge positions count the residues as written; N and C are the ends. Square brackets hold non-standard residues; d marks the D form. Peptide text beside a SMILES is read from it. * marks the point of attachment. hPhe(3-Cl-4-CF3) = N[C@@H](CCc1ccc(C(F)(F)F)c(Cl)c1)C(=O)O; hPhe(3-F,4-CF3) = N[C@@H](CCc1ccc(C(F)(F)F)c(F)c1)C(=O)O; NEtPhe(4-CF3) = CCN[C@@H](Cc1ccc(C(F)(F)F)cc1)C(=O)O; hPhe(4-CF3) = N[C@@H](CCc1ccc(C(F)(F)F)cc1)C(=O)O; NEtPhe(4-Me) = CCN[C@@H](Cc1ccc(C)cc1)C(=O)O; NMePhe(4-Cl) = CN[C@@H](Cc1ccc(Cl)cc1)C(=O)O; NMedβ3hAla = C[C@H](CC(=O)[*:2])N(C)[*:1]; NMeAla(cPent) = CN[C@@H](CC1CCCC1)C(=O)O; Phe(3-Cl) = N[C@@H](Cc1cccc(Cl)c1)C(=O)O; NMeGly(cPent) = CN[C@H](C(=O)O)C1CCCC1; Pro(4,4-F2) = O=C(O)[C@@H]1CC(F)(F)CN1; NMeCha = CN[C@@H](CC1CCCCC1)C(=O)O; Hyp = O=C(O)[C@@H]1C[C@@H](O)CN1; NMeChg = CN[C@H](C(=O)O)C1CCCCC1; NMeF = CN[C@@H](Cc1ccccc1)C(=O)O; NMeI = CC[C@H](C)[C@H](NC)C(=O)O; NMeT = CN[C@H](C(=O)O)[C@@H](C)O; NMeD = CN[C@@H](CC(=O)O)C(=O)O; NMeL = CN[C@@H](CC(C)C)C(=O)O; NMeV = CN[C@H](C(=O)O)C(C)C; Azetidin(1-yl) = C1CN(*)C1; NMeS = CN[C@@H](CO)C(=O)O; NMeA = CN[C@@H](C)C(=O)O; Piperidide = C1CCN(*)CC1; Pyrrolidide = C1CCN(*)C1; Ac5c = NC1(C(=O)O)CCCC1; Aze = O=C(O)[C@@H]1CCN1; Ac4c = NC1(C(=O)O)CCC1; Isopentyl = CC(C)CC*; βAla = NCCC(=O)O; Sar = CNCC(=O)O

What follows are compounds tested against protein-protein interaction between Kras and SOS1 (biotin-tagged human Kras loaded with GDP, His-tagged human SOS1) (Homo sapiens (Human), UniProt P01116, G12D) (assay: Protein-protein interaction inhibition between Kras and SOS1 (KrasG12D-SOS PPI) using AlphaScreen). Conditions: AlphaScreen; biotin-tagged human Kras loaded with GDP, His-tagged human SOS1; read-out: KRAS G12D-SOS PPI IC50.
Assay type: biochemical

| SMILES | IC50 [nM] |
| --- | --- |
| CC[C@H](C)[C@@H]1NC(=O)[C@H](CC(C)C)N(C)C(=O)C[C@@H](C(=O)N2CCCC2)N(C)C(=O)[C@H](C2CCCC2)N(C)C(=O)C2(CCCC2)NC(=O)[C@@H]2CCCN2C(=O)[C@H](CCc2ccc(C(F)(F)F)c(F)c2)NC(=O)CN(C)C(=O)[C@H](C2CCCC2)N(C)C(=O)[C@@H]2CCN2C(=O)[C@H](C)N(C)C1=O [Compound 918] ([NMeL]I[NMeA][Aze][NMeGly(cPent)][Sar][hPhe(3-F,4-CF3)]P[Ac5c][NMeGly(cPent)][NMeD]-Pyrrolidide; lactam N-11) | 0.89 |
| CC[C@H](C)[C@@H]1NC(=O)[C@H](CC2CCCC2)N(C)C(=O)C[C@@H](C(=O)N2CCC2)N(C)C(=O)[C@H](C2CCCC2)N(C)C(=O)C2(CCCC2)NC(=O)[C@@H]2CCCN2C(=O)[C@H](CCc2ccc(C(F)(F)F)c(Cl)c2)NC(=O)CN(C)C(=O)[C@H](CC2CCCCC2)N(C)C(=O)[C@@H]2CCN2C(=O)[C@H](C)NC1=O [Compound 921] ([NMeAla(cPent)]IA[Aze][NMeCha][Sar][hPhe(3-Cl-4-CF3)]P[Ac5c][NMeGly(cPent)][NMeD]-{Azetidin(1-yl)}; lactam N-11) | 1.1 |
| CC[C@H](C)[C@@H]1NC(=O)[C@H](C(C)C)N(C)C(=O)CCNC(=O)[C@H](CC(C)C)N(C)C(=O)C2(CCCC2)NC(=O)[C@H](CC(C)C)N(C)C(=O)[C@H](CCc2ccc(C(F)(F)F)cc2)NC(=O)CN(C)C(=O)[C@H](Cc2ccc(Cl)cc2)N(C)C(=O)CN(C)C(=O)CN(C)C1=O [Compound 923] (cyclo([Ac5c][NMeL][βAla][NMeV]I[Sar][Sar][NMePhe(4-Cl)][Sar][hPhe(4-CF3)][NMeL])) | 230 |
| CCO[C@@H]1C[C@H]2C(=O)N(C)[C@@H](COCCC(C)C)C(=O)N(C)[C@@H](CC(C)C)C(=O)N[C@H](C(=O)N3CCCC3)CC(=O)N(C)[C@@H](C)C(=O)N[C@@H]([C@@H](C)CC)C(=O)N(C)CC(=O)N(C)CC(=O)N(C)[C@@H](Cc3ccc(Cl)cc3)C(=O)N(C)CC(=O)N[C@@H](Cc3cccc(Cl)c3)C(=O)N2C1 [Compound 925] ([NMeA]I[Sar][Sar][NMePhe(4-Cl)][Sar][Phe(3-Cl)][Hyp](Et)[NMeS](Isopentyl)[NMeL]D-Pyrrolidide; lactam N-11) | 360 |
| CC[C@H](C)[C@@H]1NC(=O)[C@H](C)N(C)C(=O)C[C@@H](C)N(C)C(=O)[C@H](CC(C)C)N(C)C(=O)[C@H](Cc2ccccc2)N(C)C(=O)[C@H](CC(C)C)NC(=O)[C@H](CCc2ccc(C(F)(F)F)cc2)NC(=O)CN(C)C(=O)[C@H](Cc2ccc(Cl)cc2)N(C)C(=O)CN(C)C(=O)CN(C)C1=O [Compound 927] (cyclo(I[Sar][Sar][NMePhe(4-Cl)][Sar][hPhe(4-CF3)]L[NMeF][NMeL][NMedβ3hAla][NMeA])) | 23 |
| CCO[C@@H]1C[C@H]2C(=O)NC3(CCC3)C(=O)N(C)[C@@H](C3CCCCC3)C(=O)N(C)[C@H](C)CC(=O)N(C)[C@@H](CC(C)C)C(=O)N[C@@H]([C@@H](C)CC)C(=O)N(C)[C@@H](C)C(=O)N3CC[C@H]3C(=O)N(CC)[C@@H](Cc3ccc(C)cc3)C(=O)N(C)CC(=O)N[C@@H](CCc3ccc(C(F)(F)F)c(Cl)c3)C(=O)N2C1 [Compound 928] (cyclo([Ac4c][NMeChg][NMedβ3hAla][NMeL]I[NMeA][Aze][NEtPhe(4-Me)][Sar][hPhe(3-Cl-4-CF3)][Hyp](Et))) | 27 |
| CC[C@H](C)[C@@H]1NC(=O)[C@H](CC(C)C)N(C)C(=O)C[C@@H](C(=O)N2CCCCC2)N(C)C(=O)[C@H](C(C)C)N(C)C(=O)C2(CCCC2)NC(=O)[C@@H]2CCCN2C(=O)[C@H](CCc2ccc(C(F)(F)F)c(Cl)c2)NC(=O)CN(C)C(=O)[C@H]([C@@H](C)OC)N(C)C(=O)[C@@H]2CCN2C(=O)[C@H](C)N(C)C1=O [Compound 929] ([NMeL]I[NMeA][Aze][NMeT](Me)[Sar][hPhe(3-Cl-4-CF3)]P[Ac5c][NMeV][NMeD]-Piperidide; lactam N-11) | 4.1 |
| CCO[C@@H]1C[C@H]2C(=O)NC3(CCCC3)C(=O)N(C)[C@@H]([C@@H](C)CC)C(=O)N(C)[C@H](C)CC(=O)N(C)[C@@H](CC(C)C)C(=O)N[C@@H]([C@@H](C)CC)C(=O)N(C)[C@@H](C)C(=O)N3CC[C@H]3C(=O)N(CC)[C@@H](Cc3ccc(C(F)(F)F)cc3)C(=O)N(C)CC(=O)N[C@@H](CCc3ccc(C(F)(F)F)c(Cl)c3)C(=O)N2C1 [Compound 932] (cyclo([Ac5c][NMeI][NMedβ3hAla][NMeL]I[NMeA][Aze][NEtPhe(4-CF3)][Sar][hPhe(3-Cl-4-CF3)][Hyp](Et))) | 5.4 |
| CC[C@H](C)[C@@H]1NC(=O)[C@H](CC(C)C)N(C)C(=O)C[C@@H](C)N(C)C(=O)[C@H](C2CCCC2)N(C)C(=O)C2(CCC2)NC(=O)[C@@H]2CC(F)(F)CN2C(=O)[C@H](CCc2ccc(C(F)(F)F)c(Cl)c2)NC(=O)CN(C)C(=O)[C@H](Cc2ccc(C(F)(F)F)cc2)N(CC)C(=O)[C@@H]2CCN2C(=O)[C@H](C)N(C)C1=O [Compound 949] (cyclo([Ac4c][NMeGly(cPent)][NMedβ3hAla][NMeL]I[NMeA][Aze][NEtPhe(4-CF3)][Sar][hPhe(3-Cl-4-CF3)][Pro(4,4-F2)])) | 1.3 |
